From patent US20130281298A1 (priority 2012, published 2013) come the findings set out here.

In the test the test system is citrus greening (HLB). The class given is in vivo, orange tree.

In the case of `OC[C@H]1O[C@H](O[C@H]2O[C@H](CO)[C@@H](O)[C@H](O)[C@H]2O)[C@H](O)[C@@H](O)[C@@H]1O` [trehalose], the “new leaf formation on apparently dead branches” value (as late as four months after treatment, tree seriously afflicted with citrus greening) is reported as “new leaves that are formed even on apparently dead branches”. For the same molecule, the “condition of tree after foliar treatment” value (four months after one foliar treatment to the canopy of leaves, 1 gram trehalose per 1 gallon of water, 100 gallons/acre) is “nearly complete renewal of the tree”. The development of flowers result (three months after single foliar treatment) is reported as “prolific development of flowers”.
